Measurements reported in patent publication US20210130406A1, “PEPTIDE, COMPOSITION, AND METHOD FOR TREATING, PREVENTING, OR AMELIORATING MOOD DISORDER” (KYOTO UNIVERSITY, priority 2018, published 2021).

How the values were obtained:
[1] = test system: ddy mouse; test: Tail suspension test (motivation-improving effect), oral peptide; format: in vivo; settings: 30 minutes after administration, vs saline control
Procedure: (§1) Each prepared peptide was administered to a mouse (ddy mouse (5-week-old male, body weight 24 g-28 g)) in each of the following tests, and then the motivation-improving effect was evaluated by a tail suspension test.
(§2) Each mouse was suspended by the tail and hung 30 cm above the floor, 30 minutes after peptide administration. Subsequently, over a period of 6 minutes from the start of the test (0 minute), the time (immobility time) during which the mouse was in an immobility state after initiating escape behavior was measured. The immobility state is known as a “despair state”, and it can be evaluated that the shorter the immobility time, the better the despair state and the greater the motivation. Therefore, substances that provide a motivation-improving effect in this test can be effective in treating, preventing, or ameliorating mood disorders.
(§3) The amino acid sequence represented by SEQ ID NO: 2 was dissolved in physiological saline and orally administered to each mouse in an amount of 0.03, 0.1, or 0.3 mg/kg per body weight (n=5 to 6). As a control, mice were prepared by orally administering physiological saline alone (n=6). Each mouse was subjected to a tail suspension test, and the motivation-improving effect resulting from the peptide of the present invention was evaluated.
as §3, with “Each of the” for “The”, “sequences” for “sequence”, “NOS: 1 to 3” for “NO: 2”, “mice” for “each mouse”, “0.1” for “0.03, 0.1, or 0.3”, “alone to the mice” for “alone”

[2] = test system: ddy mouse; test: Tail suspension test, peptide combined with receptor antagonists; format: in vivo; settings: Test 3, FIG. 3
Procedure: as §1, §2
Mice were prepared by orally administering the amino acid sequence represented by SEQ ID NO: 2 in an amount of 0.3 mg/kg and various receptor antagonists in combination thereto (n=5 to 6). Each mouse was subjected to a tail suspension test, and the motivation-improving effect resulting from the peptide of the present invention was evaluated.
(1) SCH23390: dopamine D1 receptor antagonist, and the amount used: 30 μg/kg (2) WAY100135: serotonin 5-HT1A receptor antagonist, and the amount used: 10 mg/kg (3) Bicuculline: GABA-A receptor antagonist, and the amount used: 30 mg/kg

[3] = Test 2, FIG. 2, oral 0.1 mg/kg in physiological saline

Substance	immobility time [1, 3]	immobility time ([1]; Test 1, FIG. 1, oral 0.03, 0.1 or 0.3 mg/kg in physiological saline, 6 minutes test, tendency depended on concentration)	immobility time ([2]; oral 0.3 mg/kg combined with Bicuculline (GABA-A receptor antagonist) 30 mg/kg)	immobility time ([2]; oral 0.3 mg/kg combined with SCH23390 (dopamine D1 receptor antagonist) 30 μg/kg)	immobility time ([2]; oral 0.3 mg/kg combined with WAY100135 (serotonin 5-HT1A receptor antagonist) 10 mg/kg)
QQFLPEG [SEQ ID NO: 3]	not observed to have any decrease in immobility time				
QSQSQK [SEQ ID NO: 1]	shorter immobility time than the control				
QQFLPEGQSQSQK [SEQ ID NO: 2]	shorter immobility time than the control	shorter than that of the control	relatively decreased the immobility time	significantly increased immobility time	relatively decreased the immobility time
